According to patent US10106501B2, “Nuclear receptor modulators” (AbbVie Inc., priority 2015, dated 2018):

Each molecule was assayed against T1, chimeric human RORγ-Gal4 receptor (Homo sapiens, UniProt P51449) (assay: transient transactivation assay (RORγ-Gal4 luciferase reporter)). Conditions: Cos-7 cells transfected with RORγ-Gal4 and 5Gal4 pGL3 TK Luc reporter; overnight incubation; T0901317 at 10^-5 M as reference; read-out: IC50.
T1 sequence (P51449 269-508 limits assumed): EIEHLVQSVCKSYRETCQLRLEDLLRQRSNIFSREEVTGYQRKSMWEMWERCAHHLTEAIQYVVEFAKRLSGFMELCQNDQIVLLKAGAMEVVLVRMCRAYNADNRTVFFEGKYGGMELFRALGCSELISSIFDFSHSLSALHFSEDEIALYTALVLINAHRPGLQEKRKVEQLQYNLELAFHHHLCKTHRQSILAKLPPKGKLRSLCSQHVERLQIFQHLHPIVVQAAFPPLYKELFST
Format: cell-based

IC50, < 100 nM:
Cc1cc(C(F)(F)F)cc2c1cc(Cc1c(Cl)ccc(C(=O)N3CCC(C(O)C(=O)O)CC3)c1Cl)n2C (centres unmarked) [Example B-20]
Cc1cc(OC(F)F)cc2ccn(Cc3c(Cl)ccc(C(=O)N4CCC(CC(=O)O)CC4)c3Cl)c12 [EM, 2-(1-(2,4-dichloro-3-((5-(difluoromethoxy)-7-methyl-1H-indol-1-yl)methyl)benzoyl)piperidin-4-yl)acetic acid]
Cc1cc(C(F)(F)F)cc2c1cc(Cc1c(Cl)ccc(C(=O)N3CCN(C4CC(C(=O)O)C4)CC3)c1Cl)n2C (centres unmarked) [Example S, 3-(4-(2,4-dichloro-3-((1,4-dimethyl-6-(trifluoromethyl)-1H-indol-2-yl)methyl)benzoyl)piperazin-1-yl)cyclobutanecarboxylic acid]
Cn1c(Cc2c(Cl)ccc(C(=O)N3CCOCC3)c2Cl)cc2c(Cl)cc(C#N)cc21 [DQ, 4-chloro-2-(2,6-dichloro-3-(morpholine-4-carbonyl)benzyl)-1-methyl-1H-indole-6-carbonitrile]
Cc1cc(C(F)(F)F)cc2c1c(Cc1c(Cl)ncc(C(=O)N3CCC(CC(=O)O)CC3)c1Cl)cn2C [DV, 2-[1-[4,6-dichloro-5-[[1,4-dimethyl-6-(trifluoromethyl)-1H-indol-3-yl]methyl]pyridine-3-carbonyl]-4-piperidyl]acetic acid]
Cn1c(Cc2c(Cl)ccc(C(=O)N3CCOCC3)c2Cl)cc2c(Cl)cc(Cl)cc21 [EZ, (2,4-dichloro-3-((4,6-dichloro-1-methyl-1H-indol-2-yl)methyl)phenyl)(morpholino)methanone]
CNC(=O)c1cc(C)c2cc(Cc3c(Cl)ccc(C(=O)N4CCOCC4)c3Cl)n(C)c2c1 [Example FP, 2-[[2,6-dichloro-3-(morpholine-4-carbonyl)phenyl]methyl]-N,1,4-trimethyl-indole-6-carboxamide]
O=C(O)CC1CCN(C(=O)c2ccc(Cl)c(Cn3ccc4cc(C(F)(F)F)cc(Cl)c43)c2Cl)CC1 [EI-5]
CSc1ccc2c(ccn2Cc2c(Cl)ccc(C(=O)N3CCC(CC(=O)O)CC3)c2Cl)c1 [EI-2]
Cc1cn(Cc2c(Cl)ccc(C(=O)N3CCC(CC(=O)O)CC3)c2Cl)c2c(C)cc(OC(F)(F)F)cc12 [EG, 2-[1-[2,4-dichloro-3-[[3,7-dimethyl-5-(trifluoromethoxy)-1H-indol-1-yl]methyl]benzoyl]-4-piperidyl]acetic acid]
COC1CCN(C(=O)c2ccc(Cl)c(Cc3nc4c(C)cc(C(F)(F)F)cn4c3C)c2Cl)CC1 [CT-6]
Cn1c(Cc2c(Cl)cnc(C(=O)N3CCC(CC(=O)O)CC3)c2Cl)cc2ccc(OC(F)(F)F)cc21 [Example GK, 2-(1-(3,5-dichloro-4-((1-methyl-6-(trifluoromethoxy)-1H-indol-2-yl)methyl)picolinoyl)piperidin-4-yl)acetic acid]
COc1cc(C)c2cc(Cc3c(Cl)ccc(C(=O)N4CCC(CC(=O)O)CC4)c3Cl)n(C)c2c1 [Example FD, 2-(1-(2,4-dichloro-3-((6-methoxy-1,4-dimethyl-1H-indol-2-yl)methyl)benzoyl)piperidin-4-yl)acetic acid]
CC1CN(C(=O)c2ccc(Cl)c(Cc3cc4ccc(OC(F)(F)F)cc4n3C)c2Cl)CCC1C(=O)O (centres unmarked) [FI-2]
Cc1cc(C(F)(F)F)cc2c1c(Cc1c(Cl)ccc(C(=O)N3CC[C@@H](C(=O)O)[C@@H](C)C3)c1Cl)cn2C [Example F1-3]
Cc1cc(Cl)nc2c1cc(Cc1c(Cl)ccc(C(=O)N3CCOCC3)c1Cl)n2C [CM1, (2,4-dichloro-3-((6-chloro-1,4-dimethyl-1H-pyrrolo[2,3-b]pyridin-2-yl)methyl)phenyl)(morpholino)methanone]
Cc1cc(C(F)(F)F)cc2c1c(Cc1c(Cl)ccc(C(=O)N3CCC(CC(=O)O)CC3)c1Cl)nn2C [EE, 2-(1-(2,4-dichloro-3-((1,4-dimethyl-6-(trifluoromethyl)-1H-indazol-3-yl)methyl)benzoyl)piperidin-4-yl)acetic acid]
Cc1cn(C(=O)c2c(Cl)ccc(C(=O)N3CCC(C(=O)O)CC3)c2Cl)c2c(C)cc(C(F)(F)F)cc12 [DJ1-1]
Cc1cc(C(F)(F)F)cc2cn(Cc3c(Cl)ccc(C(=O)N4CCC(CC(=O)O)CC4)c3Cl)nc12 [ED, 2-(1-(2,4-dichloro-3-((7-methyl-5-(trifluoromethyl)-2H-indazol-2-yl)methyl)benzoyl)piperidin-4-yl)acetic acid]
Cc1cc(OC(F)(F)F)cc2ccn(C(=O)c3c(Cl)ccc(C(=O)N4CC5(CC(CC(=O)O)C5)C4)c3Cl)c12 [EL-1]
Cc1nc(C(F)(F)F)cc2c1cc(Cc1c(Cl)ccc(C(=O)N3CCN(C4COC4)CC3)c1Cl)n2C [Example FJ, (2,4-dichloro-3-((1,4-dimethyl-6-(trifluoromethyl)-1H-pyrrolo[3,2-c]pyridin-2-yl)methyl)phenyl)(4-(oxetan-3-yl)piperazin-1-yl)methanone]

IC50, 500 to 1000 nM:
Cc1cc(C(F)(F)F)cc2c1nc(Cc1c(Cl)ccc(CN3CCC(CC(C)(C)O)CC3)c1Cl)n2C [BW-12]
Cc1cc(C#N)cc2c1cc(Cc1c(Cl)ccc(O[C@H]3CC[C@@H](C(=O)O)CC3)c1Cl)n2C [Example AF1, cis-4-(2,4-dichloro-3-((6-cyano-1,4-dimethyl-1H-indol-2-yl)methyl)phenoxy)cyclohexanecarboxylic acid]
Cc1cc(C#N)cc2c1cc(Cc1c(Cl)ccc(C(=O)NC3CCOCC3)c1Cl)n2C [AA-23]

IC50, 1000 to 10000 nM:
Cc1cc(C(F)(F)F)cc2c1nc(Cc1c(Cl)ccc(C(=O)N3CCN(C)C(C)C3)c1Cl)n2C (centres unmarked) [BJ-31]
COC[C@@H]1CN(C(=O)c2ccc(Cl)c(Cc3cc4c(C)cc(C(F)(F)F)cc4n3C)c2Cl)C[C@H]1C(=O)O [Example B-15]
Cc1cc(C#N)cc2c1cc(Cc1c(Cl)ccc(C(=O)N3CCC(OCC(=O)O)CC3)c1Cl)n2C [Example AM, 2-((1-(2,4-dichloro-3-((6-cyano-1,4-dimethyl-1H-indol-2-yl)methyl)benzoyl)piperidin-4-yl)oxy)acetic acid]
Cn1c(Cc2c(Cl)ccc(C(=O)N3CCOCC3)c2Cl)cc2c(Cl)cc(C#N)cc21 [CJ, 4-chloro-2-(2,6-dichloro-3-(morpholine-4-carbonyl)benzyl)-1-methyl-1H-indole-6-carbonitrile]
Cc1cc(C(F)(F)F)cc2c1cc(Cc1c(Cl)cn(CCC(=O)O)c(=O)c1Cl)n2C [Example BI, 3-(3,5-dichloro-4-((1,4-dimethyl-6-(trifluoromethyl)-1H-indol-2-yl)methyl)-2-oxopyridin-1(2H)-yl)propanoic acid]

IC50, 100 to 500 nM:
Cn1c(Cc2c(Cl)ccc(C(=O)N3CCN(C4CC(C(=O)O)C4)CC3)c2Cl)cc2ccc(C(F)(F)F)cc21 (centres unmarked) [O, 3-(4-(2,4-dichloro-3-((1-methyl-6-(trifluoromethyl)-1H-indol-2-yl)methyl)benzoyl)piperazin-1-yl)cyclobutanecarboxylic acid]
Cc1cc(C(F)(F)F)cc2c1nc(Cc1c(Cl)ccc(C(=O)N3CCC(C(C)(C)O)CC3)c1Cl)n2C [BJ-9]
Cc1cc(C#N)cc2c1cc(Cc1c(Cl)ccc(C(=O)N3CCC(CO)C3)c1Cl)n2C (centres unmarked) [AA-19]
Cc1cn(C(=O)c2c(Cl)ccc(C(=O)N3CCC(C(=O)O)CC3)c2Cl)c2c(C)cc(OC(F)(F)F)cc12 [EH-1]
Cc1cc(C(F)(F)F)cc2c1nc(Cc1c(Cl)ccc(CN3CCC(O)CC3)c1Cl)n2C [BW-4]
Cc1cc(C(F)(F)F)cc2c1cc(Cc1c(Cl)ncc(C(=O)N3CCC(O)(CCO)CC3)c1Cl)n2C [BH-2]
Cc1cc(C(F)(F)F)cc2c1nc(Cc1c(Cl)ccc(CN3CCC(CCO)CC3)c1Cl)n2C [BW-11]
Cc1cc(C(F)(F)F)nc2c1cc(Cc1c(Cl)ncc(C(=O)N3CCN(S(C)(=O)=O)CC3)c1Cl)n2C [Example GE, (4,6-dichloro-5-((1,4-dimethyl-6-(trifluoromethyl)-1H-pyrrolo[2,3-b]pyridin-2-yl)methyl)pyridin-3-yl)(4-(methylsulfonyl)piperazin-1-yl)methanone]
Cc1cc(C(F)(F)F)nn2c(C)c(C(=O)c3c(Cl)ccc(C(=O)N4CCC(CC(=O)O)CC4)c3Cl)nc12 [CZ-1A, 2-(1-(2,4-dichloro-3-(3,8-dimethyl-6-(trifluoromethyl)imidazo[1,2-b]pyridazine-2-carbonyl)benzoyl)piperidin-4-yl)acetic acid]
CCOC(=O)CN1CCN(C(=O)c2ccc(Cl)c(Cc3cc4c(C)cc(C(F)(F)F)cc4n3C)c2Cl)CC1 [Example AV, ethyl 2-(4-(2,4-dichloro-3-((1,4-dimethyl-6-(trifluoromethyl)-1H-indol-2-yl)methyl)benzoyl)piperazin-1-yl)acetate]
COCC1CCN(Cc2ccc(Cl)c(Cc3nc4c(C)cc(C(F)(F)F)cc4n3C)c2Cl)CC1 [BW-3]
Cc1cc(C(F)(F)F)nc2c1cc(C(=O)c1c(Cl)ccc(C(=O)N3CC[C@@H](C(=O)O)[C@@H](C)C3)c1Cl)n2C [Example FX, (3R,4R)-1-(2,4-dichloro-3-(1,4-dimethyl-6-(trifluoromethyl)-1H-pyrrolo[2,3-b]pyridine-2-carbonyl)benzoyl)-3-methylpiperidine-4-carboxylic acid]
Cc1cc(C#N)cc2c1cc(Cc1c(Cl)ccc(C(=O)N3CC4(COC4)C3)c1Cl)n2C [AA-26]
CNC(=O)[C@@H]1CCCN1C(=O)c1ccc(Cl)c(Cc2cc3c(C)cc(C#N)cc3n2C)c1Cl [AA-32]
Cc1cc(C#N)cc2c1cc(Cc1c(Cl)ccc(C(=O)NC3CCC(O)CC3)c1Cl)n2C (centres unmarked) [AA-22]
